Reference: patent US20100028878A1, “Modulators of UDP-glucose ceramide glucosyltransferase for treating acne or hyperkeratinization” (GALDERMA RESEARCH & DEVELOPMENT, priority 2006, published 2010)

System: mRNA for UGCG in the mouse preputial gland
Conditions: gonadectomized male mice, medium-term treatment, effect visible at 96 hours
Description: The expression of the genes was analyzed on an Affymetrix station (microfluidic model; hybridization oven; scanner; computer) following the protocols provided by the company. Briefly, the total RNA isolated from the tissues is transcribed to cDNA. From the double-stranded cDNA, a cRNA labeled with biotin is synthesized using T7 polymerase and a precursor NTP conjugated to biotin. The cRNAs are then fragmented to small sized fragments. All the molecular biology steps are checked using the Agilent “Lab on a chip” system in order to confirm the good efficiencies of the enzymatic reactions. The Affymetrix chip is hybridized with the biotinylated cRNA, rinsed and then fluorescence labeled using a fluorophore conjugated to streptavidin. After washings, the chip is scanned and the results are calculated using the MAS5 software provided by Affymetrix. An expression value is obtained for each gene as well as the indication of the significance of the value obtained.
B. Male mice were gonadectomized and treated with the vehicle or DHT. The preputial glands were removed for a period ranging up to 4 days (androgenic treatment alone—observation of a short-term kinetics). The RNA was isolated and the expression of the genes was analyzed by the Affymetrix technique.

With `C[C@]12CCC(=O)C[C@@H]1CC[C@@H]1[C@@H]2CC[C@]2(C)[C@@H](O)CC[C@@H]12` [DHT, Dihydrotestosterone] the “mRNA for UGCG in the mouse preputial gland” value was “reduced”.
